Laboratory results: PubChem BioAssay (NCI)
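Exposure lasted 48 hours, with cells grown in 96-well plates and compounds tested at five concentrations. TGI: total growth inhibition.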

What was measured:
Assay in all cases: DTP human tumour cell line panel, 48 h
786-0 renal = system: 786-0 renal
A498 renal = system: A498 renal
A549 NSCLC = system: A549 NSCLC
ACHN renal = system: ACHN renal
BT-549 breast = system: BT-549 breast
CAKI-1 renal = system: CAKI-1 renal
CCRF-CEM leukemia = system: CCRF-CEM leukemia
COLO 205 colon = system: COLO 205 colon
DU-145 prostate = system: DU-145 prostate
EKVX NSCLC = system: EKVX NSCLC
HCC-2998 colon = system: HCC-2998 colon
HCT-116 colon = system: HCT-116 colon
HCT-15 colon = system: HCT-15 colon
HOP-62 NSCLC = system: HOP-62 NSCLC
HOP-92 NSCLC = system: HOP-92 NSCLC
HS 578T breast = system: HS 578T breast
HT29 colon = system: HT29 colon
IGROV1 ovarian = system: IGROV1 ovarian
K-562 leukemia = system: K-562 leukemia
KM12 colon = system: KM12 colon
LOX IMVI melanoma = system: LOX IMVI melanoma
M14 melanoma = system: M14 melanoma
MALME-3M melanoma = system: MALME-3M melanoma
MCF7 breast = system: MCF7 breast
MDA-MB-231 breast = system: MDA-MB-231 breast
MDA-MB-435 = system: MDA-MB-435
MDA-N = system: MDA-N
MOLT-4 leukemia = system: MOLT-4 leukemia
NCI-H226 lung = system: NCI-H226 lung
NCI-H23 lung = system: NCI-H23 lung
NCI-H460 lung = system: NCI-H460 lung
NCI-H522 lung = system: NCI-H522 lung
NCI/ADR-RES ovarian = system: NCI/ADR-RES ovarian
OVCAR-3 ovarian = system: OVCAR-3 ovarian
OVCAR-4 ovarian = system: OVCAR-4 ovarian
OVCAR-5 ovarian = system: OVCAR-5 ovarian
OVCAR-8 ovarian = system: OVCAR-8 ovarian
PC-3 prostate = system: PC-3 prostate
RPMI-8226 leukemia = system: RPMI-8226 leukemia
RXF 393 renal = system: RXF 393 renal
SF-268 CNS = system: SF-268 CNS
SF-295 CNS = system: SF-295 CNS
SF-539 CNS = system: SF-539 CNS
SK-MEL-2 melanoma = system: SK-MEL-2 melanoma
SK-MEL-28 melanoma = system: SK-MEL-28 melanoma
SK-MEL-5 melanoma = system: SK-MEL-5 melanoma
SK-OV-3 ovarian = system: SK-OV-3 ovarian
SN12C renal = system: SN12C renal
SNB-19 CNS = system: SNB-19 CNS
SNB-75 CNS = system: SNB-75 CNS
SW-620 colon = system: SW-620 colon
T-47D breast = system: T-47D breast
TK-10 renal = system: TK-10 renal
U251 CNS = system: U251 CNS
UACC-257 melanoma = system: UACC-257 melanoma
UACC-62 melanoma = system: UACC-62 melanoma
UO-31 renal = system: UO-31 renal
HL-60(TB) leukemia = system: HL-60(TB) leukemia
SR leukemia = system: SR leukemia

With `CN(C)c1ccc2nc(CC(O)(C(F)(F)F)C(F)(F)F)ccc2c1` as the molecule, how does the TGI (786-0 renal) read?
Its TGI is > 10 µM.

And the TGI (A498 renal)?
The TGI was > 10 µM.

What about the TGI (A549 NSCLC) of the same molecule?
Its TGI is > 10 µM.

What about the TGI (ACHN renal) of the same molecule?
The TGI was > 10 µM.

And the TGI (BT-549 breast)?
The TGI was > 10 µM.

And the TGI (CAKI-1 renal)?
Its TGI is > 10 µM.

What about the TGI (CCRF-CEM leukemia) of the same molecule?
The TGI was > 10 µM.

And the TGI (COLO 205 colon)?
The TGI was > 10 µM.

What about the TGI (DU-145 prostate) of the same molecule?
The TGI was > 10 µM.

And the TGI (EKVX NSCLC)?
Its TGI is > 10 µM.

And the TGI (HCC-2998 colon)?
The TGI was > 10 µM.

What about the TGI (HCT-116 colon) of the same molecule?
The TGI was > 10 µM.

What about the TGI (HCT-15 colon) of the same molecule?
The TGI was > 10 µM.

What about the TGI (HOP-62 NSCLC) of the same molecule?
The TGI was > 10 µM.

And the TGI (HOP-92 NSCLC)?
The TGI was > 10 µM.

And the TGI (HS 578T breast)?
Its TGI is > 10 µM.

What about the TGI (HT29 colon) of the same molecule?
The TGI was > 10 µM.

What about the TGI (IGROV1 ovarian) of the same molecule?
The TGI was > 10 µM.

And the TGI (K-562 leukemia)?
The TGI was > 10 µM.

And the TGI (KM12 colon)?
The TGI was > 10 µM.

What about the TGI (LOX IMVI melanoma) of the same molecule?
Its TGI is > 10 µM.

What about the TGI (M14 melanoma) of the same molecule?
The TGI was > 10 µM.

What about the TGI (MALME-3M melanoma) of the same molecule?
Its TGI is > 10 µM.

What about the TGI (MCF7 breast) of the same molecule?
The TGI was > 10 µM.

What about the TGI (MDA-MB-231 breast) of the same molecule?
The TGI was > 10 µM.

What about the TGI (MDA-MB-435) of the same molecule?
The TGI was > 10 µM.

What about the TGI (MDA-N) of the same molecule?
The TGI was > 10 µM.

And the TGI (MOLT-4 leukemia)?
Its TGI is > 10 µM.

What about the TGI (NCI-H226 lung) of the same molecule?
Its TGI is > 10 µM.

What about the TGI (NCI-H23 lung) of the same molecule?
The TGI was > 10 µM.

And the TGI (NCI-H460 lung)?
Its TGI is > 10 µM.

And the TGI (NCI-H522 lung)?
Its TGI is > 10 µM.

And the TGI (NCI/ADR-RES ovarian)?
The TGI was > 10 µM.

And the TGI (OVCAR-3 ovarian)?
The TGI was > 10 µM.

And the TGI (OVCAR-4 ovarian)?
The TGI was > 10 µM.

What about the TGI (OVCAR-5 ovarian) of the same molecule?
The TGI was > 10 µM.

And the TGI (OVCAR-8 ovarian)?
The TGI was > 10 µM.

What about the TGI (PC-3 prostate) of the same molecule?
Its TGI is > 10 µM.

And the TGI (RPMI-8226 leukemia)?
The TGI was > 10 µM.

What about the TGI (RXF 393 renal) of the same molecule?
Its TGI is > 10 µM.

And the TGI (SF-268 CNS)?
Its TGI is > 10 µM.

And the TGI (SF-295 CNS)?
The TGI was > 10 µM.

What about the TGI (SF-539 CNS) of the same molecule?
The TGI was > 10 µM.

What about the TGI (SK-MEL-2 melanoma) of the same molecule?
Its TGI is > 10 µM.

What about the TGI (SK-MEL-28 melanoma) of the same molecule?
The TGI was > 10 µM.

What about the TGI (SK-MEL-5 melanoma) of the same molecule?
The TGI was > 10 µM.

And the TGI (SK-OV-3 ovarian)?
Its TGI is > 10 µM.

And the TGI (SN12C renal)?
The TGI was > 10 µM.

What about the TGI (SNB-19 CNS) of the same molecule?
The TGI was > 10 µM.

And the TGI (SNB-75 CNS)?
The TGI was > 10 µM.

What about the TGI (SW-620 colon) of the same molecule?
Its TGI is > 10 µM.

And the TGI (T-47D breast)?
The TGI was > 10 µM.

What about the TGI (TK-10 renal) of the same molecule?
Its TGI is > 10 µM.

What about the TGI (U251 CNS) of the same molecule?
The TGI was > 10 µM.

And the TGI (UACC-257 melanoma)?
The TGI was > 10 µM.

And the TGI (UACC-62 melanoma)?
The TGI was > 10 µM.

What about the TGI (UO-31 renal) of the same molecule?
Its TGI is > 10 µM.

For `O=C1c2ccccc2C(=O)N1CC(CN1C(=O)c2ccccc2C1=O)(C(=O)OCc1ccccc1)C(=O)OCc1ccccc1`, which TGI (A498 renal) is on record?
Its TGI is > 100 µM.

And the TGI (BT-549 breast)?
The TGI was > 100 µM.

What about the TGI (CAKI-1 renal) of the same molecule?
The TGI was > 100 µM.

And the TGI (CCRF-CEM leukemia)?
The TGI was > 100 µM.

What about the TGI (COLO 205 colon) of the same molecule?
The TGI was > 100 µM.

And the TGI (DU-145 prostate)?
Its TGI is > 100 µM.

What about the TGI (HCC-2998 colon) of the same molecule?
The TGI was > 100 µM.

And the TGI (HCT-116 colon)?
The TGI was > 100 µM.

And the TGI (HCT-15 colon)?
The TGI was > 100 µM.

And the TGI (HL-60(TB) leukemia)?
The TGI was > 100 µM.

What about the TGI (HOP-62 NSCLC) of the same molecule?
The TGI was > 100 µM.

What about the TGI (HOP-92 NSCLC) of the same molecule?
Its TGI is > 100 µM.

What about the TGI (HS 578T breast) of the same molecule?
The TGI was > 100 µM.

What about the TGI (HT29 colon) of the same molecule?
Its TGI is > 100 µM.

And the TGI (IGROV1 ovarian)?
The TGI was > 100 µM.

And the TGI (KM12 colon)?
The TGI was > 100 µM.

And the TGI (M14 melanoma)?
Its TGI is > 100 µM.

And the TGI (MALME-3M melanoma)?
Its TGI is > 100 µM.

What about the TGI (MDA-MB-231 breast) of the same molecule?
The TGI was > 100 µM.

What about the TGI (MDA-MB-435) of the same molecule?
The TGI was > 100 µM.

What about the TGI (MDA-N) of the same molecule?
The TGI was > 100 µM.

What about the TGI (MOLT-4 leukemia) of the same molecule?
Its TGI is > 100 µM.

And the TGI (NCI-H226 lung)?
Its TGI is > 100 µM.

What about the TGI (NCI-H23 lung) of the same molecule?
Its TGI is > 100 µM.

What about the TGI (NCI-H460 lung) of the same molecule?
Its TGI is > 100 µM.

What about the TGI (NCI-H522 lung) of the same molecule?
The TGI was > 100 µM.

And the TGI (NCI/ADR-RES ovarian)?
Its TGI is > 100 µM.

And the TGI (OVCAR-3 ovarian)?
The TGI was > 100 µM.

And the TGI (OVCAR-5 ovarian)?
The TGI was > 100 µM.

What about the TGI (OVCAR-8 ovarian) of the same molecule?
Its TGI is > 100 µM.

What about the TGI (PC-3 prostate) of the same molecule?
Its TGI is > 100 µM.

What about the TGI (RPMI-8226 leukemia) of the same molecule?
The TGI was > 100 µM.

What about the TGI (RXF 393 renal) of the same molecule?
The TGI was > 100 µM.

And the TGI (SF-295 CNS)?
The TGI was > 100 µM.

What about the TGI (SK-MEL-2 melanoma) of the same molecule?
The TGI was > 100 µM.

What about the TGI (SK-MEL-28 melanoma) of the same molecule?
Its TGI is > 100 µM.

What about the TGI (SK-MEL-5 melanoma) of the same molecule?
Its TGI is > 100 µM.

And the TGI (SK-OV-3 ovarian)?
The TGI was > 100 µM.

What about the TGI (SN12C renal) of the same molecule?
Its TGI is > 100 µM.

And the TGI (SNB-19 CNS)?
Its TGI is > 100 µM.

What about the TGI (SNB-75 CNS) of the same molecule?
The TGI was > 100 µM.

What about the TGI (SR leukemia) of the same molecule?
The TGI was > 100 µM.

And the TGI (T-47D breast)?
The TGI was > 100 µM.

And the TGI (U251 CNS)?
Its TGI is > 100 µM.

And the TGI (UACC-62 melanoma)?
The TGI was > 100 µM.

And the TGI (UO-31 renal)?
Its TGI is > 100 µM.
